Experimental data reported in ChEMBL document CHEMBL1201862, “PubChem BioAssay data set” (2004).
Active and inactive are the calls of the source.

Key:
[1] = Luminescence Cell-Based Dose Confirmation HTS to Identify Activators of 5'UTR Stem-Loop Driven Alpha-Synuclein mRNA Translation in H4 Neuroglioblastoma Cells. [Related pubchem assays: 1829 (Project Summary), 1814 (Primary HTS)]; format: functional
[2] = Luminescence Cell-Based Dose Response HTS to Identify Activators of Luciferase Translation or Activity in H4 […] Cells. [Related pubchem assays: 1829 (Project Summary), 1814 (Primary HTS)]; format: functional
H4 = experiment: Luminescence Cell-Based Dose Response HTS to Identify Activators of 5'UTR Stem-Loop Driven Prion Protein mRNA Translation in H4 Neuroglioblastoma Cells. [Related pubchem assays: 1829 (Project Summary), 1814 (Primary HTS)]; format: functional; settings: Homo sapiens
[3] = molecular target: T1, Apoptotic protease-activating factor 1 (Homo sapiens, UniProt O14727); format: functional
T1 sequence (O14727 whole entry): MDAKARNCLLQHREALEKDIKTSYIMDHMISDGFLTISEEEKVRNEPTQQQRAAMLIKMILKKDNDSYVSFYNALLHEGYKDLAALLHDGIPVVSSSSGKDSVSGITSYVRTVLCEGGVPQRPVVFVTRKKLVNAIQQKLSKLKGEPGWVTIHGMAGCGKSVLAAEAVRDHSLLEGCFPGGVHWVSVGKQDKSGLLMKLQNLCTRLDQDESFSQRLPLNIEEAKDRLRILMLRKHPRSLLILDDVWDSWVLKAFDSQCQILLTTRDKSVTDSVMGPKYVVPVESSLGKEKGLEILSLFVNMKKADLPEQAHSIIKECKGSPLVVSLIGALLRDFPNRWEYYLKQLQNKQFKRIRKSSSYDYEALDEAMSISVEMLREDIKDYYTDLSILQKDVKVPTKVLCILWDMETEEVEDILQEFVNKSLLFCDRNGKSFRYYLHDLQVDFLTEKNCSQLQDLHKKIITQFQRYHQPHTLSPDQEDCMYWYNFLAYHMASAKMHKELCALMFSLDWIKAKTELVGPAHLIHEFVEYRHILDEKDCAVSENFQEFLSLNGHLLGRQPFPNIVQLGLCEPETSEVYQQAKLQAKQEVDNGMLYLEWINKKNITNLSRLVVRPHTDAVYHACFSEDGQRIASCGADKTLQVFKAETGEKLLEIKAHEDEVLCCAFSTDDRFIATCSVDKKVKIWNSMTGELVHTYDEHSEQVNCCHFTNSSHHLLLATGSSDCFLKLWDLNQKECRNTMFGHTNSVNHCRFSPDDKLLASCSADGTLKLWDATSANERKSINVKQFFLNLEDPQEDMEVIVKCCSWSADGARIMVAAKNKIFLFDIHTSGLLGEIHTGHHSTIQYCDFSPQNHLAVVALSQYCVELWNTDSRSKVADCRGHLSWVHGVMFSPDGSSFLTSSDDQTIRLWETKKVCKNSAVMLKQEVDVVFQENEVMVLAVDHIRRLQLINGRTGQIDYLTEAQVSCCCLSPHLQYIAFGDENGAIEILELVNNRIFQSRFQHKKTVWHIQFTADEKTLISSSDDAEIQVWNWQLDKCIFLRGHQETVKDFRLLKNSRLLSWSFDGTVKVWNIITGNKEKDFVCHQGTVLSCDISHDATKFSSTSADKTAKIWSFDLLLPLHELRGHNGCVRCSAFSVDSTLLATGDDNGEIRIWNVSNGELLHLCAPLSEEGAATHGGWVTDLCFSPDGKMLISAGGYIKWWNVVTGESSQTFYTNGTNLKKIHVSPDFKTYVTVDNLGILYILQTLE

Protein skinhead-1 = molecular target: T2, Protein skinhead-1 (Caenorhabditis elegans, UniProt P34707); format: functional
T2 sequence (P34707 whole entry): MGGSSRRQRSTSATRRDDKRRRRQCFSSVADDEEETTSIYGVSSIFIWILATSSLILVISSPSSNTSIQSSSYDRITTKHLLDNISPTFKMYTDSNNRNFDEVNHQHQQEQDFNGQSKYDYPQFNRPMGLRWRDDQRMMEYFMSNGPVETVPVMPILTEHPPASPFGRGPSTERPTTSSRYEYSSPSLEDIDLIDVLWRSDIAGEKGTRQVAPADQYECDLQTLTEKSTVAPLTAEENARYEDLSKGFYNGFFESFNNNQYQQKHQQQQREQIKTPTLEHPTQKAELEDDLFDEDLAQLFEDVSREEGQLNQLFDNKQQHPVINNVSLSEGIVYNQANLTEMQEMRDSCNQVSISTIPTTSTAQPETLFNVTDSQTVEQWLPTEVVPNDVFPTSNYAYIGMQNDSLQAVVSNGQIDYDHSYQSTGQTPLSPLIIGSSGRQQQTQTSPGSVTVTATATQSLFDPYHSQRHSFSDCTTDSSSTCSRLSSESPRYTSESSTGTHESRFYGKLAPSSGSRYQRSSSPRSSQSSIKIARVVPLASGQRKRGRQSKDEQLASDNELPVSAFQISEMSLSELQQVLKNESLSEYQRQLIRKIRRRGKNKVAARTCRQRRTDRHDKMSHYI

Cytochrome P450 3A4 = Cytochrome P450 3A4 (Homo sapiens, UniProt P08684);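 further: CYP3A4 tested as one member of a cytochrome P450 panel screen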
Chain of Cytochrome P450 3A4 (P08684 whole entry): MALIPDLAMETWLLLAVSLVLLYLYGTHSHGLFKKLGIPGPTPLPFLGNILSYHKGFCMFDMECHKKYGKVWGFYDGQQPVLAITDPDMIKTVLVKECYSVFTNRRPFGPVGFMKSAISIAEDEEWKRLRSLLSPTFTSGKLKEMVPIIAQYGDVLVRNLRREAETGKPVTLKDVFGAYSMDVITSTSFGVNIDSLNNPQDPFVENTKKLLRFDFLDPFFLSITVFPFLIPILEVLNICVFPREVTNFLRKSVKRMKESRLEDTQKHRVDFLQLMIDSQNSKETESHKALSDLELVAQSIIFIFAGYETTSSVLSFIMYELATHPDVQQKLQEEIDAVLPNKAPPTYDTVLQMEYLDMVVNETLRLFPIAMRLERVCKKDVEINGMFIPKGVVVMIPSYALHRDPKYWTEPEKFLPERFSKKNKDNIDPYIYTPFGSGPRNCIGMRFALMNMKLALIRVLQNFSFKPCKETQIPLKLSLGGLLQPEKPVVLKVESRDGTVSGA

[4] = molecular target: T3, Microphthalmia-associated transcription factor (Homo sapiens, UniProt O75030); experiment: TRPM1 promoter luciferase signal decrease, dose response, MITF inhibitor project, cell-based, SK-MEL-5, cherry-picked, set 3 (AID 493073); format: functional
T3 sequence (O75030 whole entry): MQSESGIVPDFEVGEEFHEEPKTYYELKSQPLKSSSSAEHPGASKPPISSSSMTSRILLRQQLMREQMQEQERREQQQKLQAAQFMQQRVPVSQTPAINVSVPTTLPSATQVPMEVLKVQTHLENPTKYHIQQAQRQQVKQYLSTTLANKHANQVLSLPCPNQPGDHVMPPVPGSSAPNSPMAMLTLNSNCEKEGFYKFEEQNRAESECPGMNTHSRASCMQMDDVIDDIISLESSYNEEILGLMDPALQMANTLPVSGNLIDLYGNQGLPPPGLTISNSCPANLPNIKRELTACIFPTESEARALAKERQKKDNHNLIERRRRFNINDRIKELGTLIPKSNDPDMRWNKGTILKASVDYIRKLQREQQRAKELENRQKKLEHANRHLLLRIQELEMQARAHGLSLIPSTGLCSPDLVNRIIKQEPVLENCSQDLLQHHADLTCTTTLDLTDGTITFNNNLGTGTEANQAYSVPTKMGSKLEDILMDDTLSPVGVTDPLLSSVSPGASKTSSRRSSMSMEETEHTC

A-375 = experiment: A375 melanoma cell viability reduction, dose response, counter-screen for MITF modulator project, cherry-pick samples, set 2 (AID 540335); format: functional, cell-based; settings: Homo sapiens
Melanocortin receptor 4 [5] = molecular target: T4, Melanocortin receptor 4 (Homo sapiens, UniProt P32245); format: functional, cell-based;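 further: Cell-based assay with luminescence read-out, confirmatory dose-response testing for agonist activity of biased ligands at MC4R; human U2OS cells with tagged receptor and beta-arrestin; potency of agonists that increase receptor coupling to beta-arrestin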
T4 sequence (P32245 whole entry): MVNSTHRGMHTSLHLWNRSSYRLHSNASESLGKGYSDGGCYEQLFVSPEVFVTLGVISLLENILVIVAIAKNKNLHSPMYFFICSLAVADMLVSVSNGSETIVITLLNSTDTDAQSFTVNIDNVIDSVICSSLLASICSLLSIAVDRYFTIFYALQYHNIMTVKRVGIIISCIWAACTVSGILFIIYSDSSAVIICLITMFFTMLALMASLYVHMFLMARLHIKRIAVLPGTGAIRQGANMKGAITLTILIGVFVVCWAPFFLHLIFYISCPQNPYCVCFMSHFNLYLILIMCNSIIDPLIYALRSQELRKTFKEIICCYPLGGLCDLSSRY

[6] = Luminescence Cell-Based Dose Retest to Confirm Inhibitors of Cancer Stem Cells. [Related pubchem assays (depositor defined):AID2717, AID2721]; format: functional; settings: Homo sapiens
INS1 = experiment: beta cell apoptosis inhibitors, cytokine rescue, dose response, luminescence, retest (AID 449756); format: functional, cell-based; settings: Rattus norvegicus;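 further: cell death triggered by IL-1 beta plus TNF-alpha plus IFN-gamma mixture; protective hits raise ATP signal compared with cytokine alone wells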
Melanocortin receptor 4 [7] = molecular target: T4, Melanocortin receptor 4; experiment: MC4R antagonist potency on cAMP, dose response, cell-based, TR-FRET, biased antagonists (AID 602298); format: functional;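 further: antagonist potency against agonist-stimulated cAMP production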
[8] = Shn3 3'UTR reporter inhibitors, dose response, cell-based, Clone20 osteoblasts, firefly luciferase, cherry-picked (AID 624132); format: functional;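 further: firefly luciferase luminescence from reporter carrying the Shn3 3'UTR in osteoblasts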
[9] = HepG2 cell cytotoxicity, dose response, cytotoxicity control for Shn3 inhibitor project, CellTiter-Glo, cherry-picked (AID 624134); format: functional, cell-based
[10] = control 3'UTR Renilla luciferase suppression, dose response, counter-screen for Shn3 inhibitor project, cell-based, Clone20-Shn3RL, cherry-picked (AID 624133); format: functional
[11] = nonselective inhibitors of cellular cAMP signaling, dose response, counter-screen for MC4R biased antagonist project, cell-based, TR-FRET cAMP detection (AID 602305); format: functional;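 further: U2OS cells stimulated with forskolin near its EC80 as the cAMP inducer; potency is for inhibition of forskolin-stimulated cAMP signaling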
[12] = Fluorescence-based cell-based high throughput dose response assay for inhibitors of the interaction of nucleotide-binding oligomerization domain containing 2 (NOD2) and the receptor-interacting serine-threonine kinase 2 (RIPK2).; format: functional; settings: Homo sapiens
Vero = Vero cell cytotoxicity, cytotoxicity control for flavivirus capping enzyme inhibitors (AID 588742); format: functional; settings: Chlorocebus sabaeus
H9c2 = experiment: cells; format: functional, cell-based; settings: Rattus norvegicus, H9c2, Myocardium;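 further: confirmatory concentration-response retest of ultra-high-throughput screening hits for modulation of myocardial damage; cell death induced by hydrogen peroxide oxidative stress; compound pretreatment for 60 min then peroxide exposure for 2 h; potency is for protecting the cells against peroxide damage rather than for killing them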
Genome polyprotein = Genome polyprotein (dengue virus type 2, UniProt P29990); experiment: Dengue-2 NS5 methyltransferase inhibitors, primary screen, biochemical, confirmation dose response (AID 588689); format: functional
Chain of Genome polyprotein (P29990 2492-3391 limits assumed): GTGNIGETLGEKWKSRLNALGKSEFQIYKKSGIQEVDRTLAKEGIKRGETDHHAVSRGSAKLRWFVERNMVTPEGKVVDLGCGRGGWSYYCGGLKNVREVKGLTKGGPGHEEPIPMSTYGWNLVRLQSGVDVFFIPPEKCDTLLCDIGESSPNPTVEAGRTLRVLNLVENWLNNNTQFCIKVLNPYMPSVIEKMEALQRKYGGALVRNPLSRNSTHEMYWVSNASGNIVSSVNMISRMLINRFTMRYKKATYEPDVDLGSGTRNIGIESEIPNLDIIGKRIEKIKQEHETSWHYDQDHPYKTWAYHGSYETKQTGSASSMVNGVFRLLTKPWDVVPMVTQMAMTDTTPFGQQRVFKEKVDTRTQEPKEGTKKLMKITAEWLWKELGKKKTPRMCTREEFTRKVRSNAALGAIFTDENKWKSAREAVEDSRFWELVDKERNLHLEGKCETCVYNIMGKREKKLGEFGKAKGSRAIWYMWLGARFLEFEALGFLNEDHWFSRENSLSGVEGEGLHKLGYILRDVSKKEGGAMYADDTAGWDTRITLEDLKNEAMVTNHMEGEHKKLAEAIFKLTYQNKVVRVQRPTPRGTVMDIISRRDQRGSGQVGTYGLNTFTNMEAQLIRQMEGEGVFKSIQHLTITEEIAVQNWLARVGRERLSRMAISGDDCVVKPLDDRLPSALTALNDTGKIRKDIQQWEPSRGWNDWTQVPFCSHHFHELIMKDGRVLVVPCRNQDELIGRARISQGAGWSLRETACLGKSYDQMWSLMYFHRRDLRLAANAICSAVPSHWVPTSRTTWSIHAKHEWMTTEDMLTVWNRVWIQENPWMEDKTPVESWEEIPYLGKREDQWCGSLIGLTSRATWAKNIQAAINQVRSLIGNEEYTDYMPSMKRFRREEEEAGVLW

[13] = molecular target: T5, Corticotropin-releasing factor receptor 2/Corticotropin-releasing factor-binding protein (Homo sapiens, UniProt P24387+Q13324); experiment: activators of CRF receptor 2 with binding protein – uHTS hits, confirmation (AID 602473); format: functional; settings: read-out: EC50_Mean
T5 sequence (Q13324 whole entry): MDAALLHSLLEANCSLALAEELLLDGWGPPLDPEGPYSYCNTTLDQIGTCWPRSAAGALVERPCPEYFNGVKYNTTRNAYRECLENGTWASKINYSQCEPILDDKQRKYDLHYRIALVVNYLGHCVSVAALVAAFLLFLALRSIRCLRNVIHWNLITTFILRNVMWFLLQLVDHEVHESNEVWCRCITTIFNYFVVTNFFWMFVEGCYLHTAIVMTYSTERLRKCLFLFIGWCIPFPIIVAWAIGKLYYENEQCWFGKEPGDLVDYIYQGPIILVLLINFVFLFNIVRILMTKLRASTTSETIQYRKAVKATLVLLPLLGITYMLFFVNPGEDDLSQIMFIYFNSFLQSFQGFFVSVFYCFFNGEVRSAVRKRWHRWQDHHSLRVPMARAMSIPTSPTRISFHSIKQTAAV
T5 sequence (P24387 whole entry): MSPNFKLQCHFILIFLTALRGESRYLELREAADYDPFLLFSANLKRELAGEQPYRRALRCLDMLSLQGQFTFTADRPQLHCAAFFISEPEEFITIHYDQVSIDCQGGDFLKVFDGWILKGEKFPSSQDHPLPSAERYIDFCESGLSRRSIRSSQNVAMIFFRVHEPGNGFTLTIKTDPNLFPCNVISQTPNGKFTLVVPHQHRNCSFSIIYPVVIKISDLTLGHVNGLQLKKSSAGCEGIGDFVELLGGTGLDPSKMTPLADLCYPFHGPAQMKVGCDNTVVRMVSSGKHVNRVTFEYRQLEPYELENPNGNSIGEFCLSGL

[14] = THP-1 cell cytotoxicity, cytotoxicity control, set 4 (AID 504911); format: functional; settings: Mycobacterium tuberculosis

With `COc1ccc2c(c1)Cc1sc(NC(=O)c3ccccc3)nc1-2` the EC50 [1] was 31.3 µM (active), the EC50 [2] was 42.4 µM (active) and the EC50 (H4) was 4.58 µM (active). The IC50 [3] was 27.5 µM (active) and the IC50 (Protein skinhead-1) was > 100 µM (inactive).
With `CC1CC2(CCCCC2)N2C(=O)C(=O)c3cccc1c32` (configuration not stated) the IC50 [3] was 24.4 µM (active) and the AC50 (Cytochrome P450 3A4) was 25.1 µM (inconclusive).
For `COc1cccc2c1C(=O)C=C(C)C2=O`, the AC50 [4] was 7.83 µM (active), the IC50 [3] was 14.4 µM (active) and the AC50 (A-375) was 37.8 µM (active).
In the case of `CC(=O)Nc1cc(-c2ccccc2F)cn2c(-c3cccc(C(F)(F)F)c3)cnc12`, the EC50 (Melanocortin receptor 4 [5]) is reported as > 89.2 µM (inactive).
With `CC1=C(CO)C(=O)OC([C@@H](C)C2CC[C@H]3C4C[C@H]5O[C@]56[C@@H](O)C=CC(=O)[C@]6(C)C4CC[C@]23C)C1` (some centres not stated) the EC50 [1] was > 120 µM (not active), the EC50 [2] was > 120 µM (not active) and the EC50 (H4) was > 120 µM (not active). The AC50 [6] was 0.982 µM (active), the AC50 (INS1) was 7.49 µM (active) and the IC50 (Melanocortin receptor 4 [7]) was > 64.6 µM (inactive). The AC50 [8] was 0.674 µM (active), the AC50 [9] was 9.71 µM (active) and the AC50 [10] was 1.99 µM (active). For the same compound, the IC50 [11] was > 64.6 µM (inactive) and the IC50 [12] was 2.65 µM (active).
In the case of `NC(=O)C1=C(c2ccccc2)c2ccccc2C1=O`, the CC50 (Vero) is reported as 32.1 µM (active), the IC50 (H9c2) is reported as > 79 µM (inactive) and the IC50 (Genome polyprotein) is reported as 59.5 µM (active). The EC50 [13] was 11.9 µM (active).
In the case of `CCCc1cc(C(N)=S)ccn1` [PROTIONAMIDE], the CC50 [14] is reported as > 100 µM (active).
